Experimental data taken from US10259777B2, “(E)-3-(3,4-dihydroxyphenyl)-N-(prop-2-yn-1-yl)acrylamide for treatment of neurodegenerative diseases” (THE UNIVERSITY OF HONG KONG, priority 2015, dated 2019).

What was measured:
[1] = tested on: primary rat midbrain neurons; assay: 6-OHDA-induced neurotoxicity in primary midbrain neurons, MTT and Hoechst 33342/PI staining; assay type: cell-based; details: 6-OHDA with or without PACA, MTT
[2] = tested on: heme oxygenase-1 (HO-1); assay: HO-1 induction in PC12 cells, Western blot; assay type: cell-based, rat; details: PACA 5 to 100 μM for 24 hours or 20 μM for 3, 6, 12, 24 hours
Method: Induction of HO-1 expression is a key mechanism underlying the neuritogenic effects of PACA. (A & B) Western blot analysis of HO-1 induction. Following PACA treatment at different concentrations (A) and for different time points (B), the cellular proteins were isolated and analyzed by Western blotting for HO-1 expression. GAPDH was analyzed as the control of protein loading. (C) PACA stimulated neurite outgrowth via HO-1-mediated mechanism. PC12 cells were treated with NGF (2 ng/ml) in combination with PACA (5 μM, 20 μM) in presence or absence of HO-1 inhibitor SnPP for 72 hours. Cells were stained by neurite outgrowth staining kit and imaged under a fluorescence microscope. (D) Role of HO-1 induction in the neuritogenic activity of PACA. The images captured in Panel C were analyzed for the number of neurite bearing cells. The cells bearing neurites longer than 20 μm were counted. The values represent means±SD (n=3). **, p<0.01 (+SnPP vs −SnPP).
It is well-known that direct modification of Keap1 causes the dissociation of the Nrf2-Keap1 complex and subsequent expression of heme oxygenase-1 (HO-1). Following the treatment with PACA at the concentrations ranging from 5 to 100 μM for 24 hours or at the concentration of 20 μM for 3, 6, 12, 24 hours, PC12 cells were analyzed by Western blotting for HO-1 induction.

[3] = tested on: PC12 cells; assay: Mitochondrial membrane integrity against 6-OHDA, JC-1 probe; assay type: cell-based, rat; details: 6-OHDA with PACA 5, 10, 20 and 50 μM
Method: PC12 cells were treated with 6-OHDA alone or in combination with PACA for 6 hours and subsequently stained with JC-1. The images were captured under a fluorescence microscope.
To investigate the neuroprotective mechanisms of PACA, PC12 cells were treated with 6-OHDA alone or in combination with PACA at the concentrations of 5, 10, 20 and 50 μM. At the end of treatment, the protection of PACA on the mitochondrial membrane integrity was examined by using a cell permeable fluorescent probe 5,5′,6,6′-tetrachloro-1,1′,3,3′-tetraethyl-benzimidazol-carbocyanine iodide (JC-1). 6-OHDA deadly disrupted the mitochondrial membrane integrity as indicated by the leakage of JC-1 into the cytosol.

[4] = tested on: PC12 cells; assay: 6-OHDA-induced superoxide production, DHE staining; assay type: cell-based, rat; details: 6-OHDA with PACA 5, 10, 20 and 50 μM
Method: After the treatment with 6-OHDA alone or in combination with PACA at different concentrations, PC12 cells were stained with a fluorescent probe dihydroethidium (DHE) for the production of superoxide anion (A & B) and another fluorescent probe DAF-FM Diacetate for the production of nitric oxide ([…]), respectively. (A) Representative images of DHE-stained cells. 6-OHDA, 200 μM; PACA, 50 (B) PACA inhibited 6-OHDA-induced formation of superoxide ions. PC12 cells were treated with 6-OHDA alone or in combination with PACA for 6 h and subsequently stained with a probe DHE. The images were captured under a fluorescence microscope. The fluorescence was determined by ImageJ software. (C) Representative images of DAF-FM DA-stained cells. 6-OHDA, 200 μM; PACA, 50 μM. (D) PACA inhibited 6-OHDA-induced NO production. PC12 cells were treated with 6-OHDA alone or in combination with PACA for 6 h and subsequently stained with a probe DAF-FM DA. The images were captured under a fluorescence microscope. The fluorescence was determined by ImageJ software.
PC12 cells were treated with 6-OHDA alone or in combination with PACA at the concentrations of 5, 10, 20 and 50 μM. At the end of treatment, PC12 cells were then stained with a fluorescent probe dihydroethidium (DHE) for the production of superoxide anion and another fluorescent probe DAF-FM Diacetate for the production of nitric oxide, respectively.

[5] = Pharmacokinetic analysis of PACA after oral administration, plasma and brain, LC-MS/MS MRM; assay type: in vivo, Sprague Dawley rats
Method: (A) HPLC-MS/MS detection of PACA. (B) Determination of PACA in mouse plasma. (C) Determination of PACA in mouse brain tissues. PACA (30 mg/kg) was orally administered into mice. Blood samples and brain tissues were collected after different times (0, 0.5, 1, 2, 3, 6, 9, 12 or 24 h). PACA was determined by liquid chromatography-mass spectrometric multiple reaction monitoring-based strategy.
Nine male Sprague Dawley rats with a body weight of 240-280 g were purchased from Laboratory Animal Unit, HKU. The animals were housed in a qualified facility run on a 12-hour light and dark cycle. The animals were allowed unrestricted access to food and water. The protocol for the animal studies was approved by Li Ka Shing Faculty of Medicine, University of Hong Kong. The rats were administered with PACA (30 mg/kg) in 50% propanediol in saline by oral gavage whereas the control animal received vehicle only. The rats were anesthetized by isoflurane at the time points of 0, 0.5, 1, 2, 3, 6, 9, 12 or 24 h. Blood samples were collected by cardiac puncture using pre-heparinized syringes and immediately transferred into the tubes containing acetonitrile for preventing esterase metabolism. Blood samples were centrifuged at 5700 rpm for 10 minutes at 4° C. to recover plasma. Brain tissues were excised after the removal of blood vessels, blotted dry with clean paper towels, and weighed. All samples were stored at −80° C. before use. HPLC separation was performed on a Phenomenex Synergi hydro-RP C18 reversed phase column (150 mm×4.6 mm, 4 m) (Torrance, Calif., USA) under the control of Agilent HLPC 1100 system (Santa Clara, Calif., USA). Gradient was set using mobile phase: A, water with 0.05% (v/v) formic acid, B, acetonitrile with 0.05% (v/v) formic acid as follows: 0-2.5 min, 40-50% B; 2.5-5.5 min, 50-80% B; 5.5-11.5 min, 80% B; 11.5-12 min, 80-40% B, 12-15 min, 40% B. Flow rate was constant at 0.7 mL/min. The column temperature was maintained at 30° C. Sample volume for injection was 20 μL. […] Multiple-reaction monitoring (MRM) detection was used for the quantitation of all analytes.

SMILES: C#CCNC(=O)/C=C/c1ccc(O)c(O)c1 [PACA, (E)-3-(3,4-dihydroxyphenyl)-N-(prop-2-yn-1-yl)acrylamide]
- 6-OHDA neurotoxicity in primary rat midbrain neurons [1]: attenuated 6-hydroxydopamine (6-OHDA) neurotoxicity
- HO-1 expression [2]: induced HO-1 expression in a time- and concentration-dependent manner
- mitochondrial membrane integrity against 6-OHDA [3]: maintained the mitochondrial membrane integrity in a concentration-dependent manner
- 6-OHDA-induced formation of superoxide ions [4]: significantly attenuated
- bioavailability in plasma and brain tissues ([5]; after oral administration): rapidly bioavailable in plasma and brain tissues
- time to peak concentration in blood ([5]; oral administration, 30 mg/kg): ≤ 60 min
- time to peak concentration in brain tissues ([5]; oral administration, 30 mg/kg): ≤ 60 min
